Assay results taken from ChEMBL document CHEMBL4680211, “Synthesis and structure-activity relationship study of water-soluble carbazole sulfonamide derivatives as new anticancer agents” (Eur J Med Chem, 2020).

Tests used:
[1] = Aqueous solubility of compound in water at pH 7.4 incubated at 20 degC by HPLC-UV analysis; type: physicochemical
[2] = tested on: HepG2; assay: Antitumor activity against human HepG2 cells xenografted in BALB/c nude mouse assessed as reduction in tumor volume administered for 29 days by caliper method; type: functional, cell-based; settings: time 29.0 day
[3] = tested on: HepG2; assay: Antitumor activity against human HepG2 cells xenografted in iv dosed BALB/c nude mouse assessed as tumor growth inhibition administered every other day for 14 to 29 days; type: functional, organism-based; settings: time 14-29 day
[4] = tested on: MCF7; assay: Antiproliferative activity against human MCF7 cells measured after 48 hrs by SRB assay; type: functional, cell-based
[5] = tested on: HepG2; assay: Antiproliferative activity against human HepG2 cells measured after 48 hrs by SRB assay; type: functional, cell-based
[6] = tested on: Bel-7402; assay: Antiproliferative activity against human Bel-7402 cells measured after 48 hrs by SRB assay; type: functional, cell-based
[7] = tested on: HepG2; assay: Antitumor activity against human HepG2 cells xenografted in BALB/c nude mouse assessed as tumor growth inhibition at 50 mg/kg, iv qod for 14 to 29 days relative to control; type: functional; settings: time 14-29 day, read-out: TGI
[8] = tested on: MDA-MB-231; assay: Antitumor activity against human MDA-MB-231 cells xenografted in BALB/c nude mouse assessed as reduction in tumor burden at 60 mg/kg, ip qod for 14 to 29 days relative to control; type: functional; set-up: scale not given: the % may be the effect or the level left; settings: time 14-29 day
[9] = Toxicity in human MDA-MB-231 cells xenografted BALB/c nude mouse assessed as effect on body weight at 60 mg/kg, ip qod for 14 to 29 days measured every two days during compound dosing; type: organism-based; settings: in vivo, time 14-29 day
[10] = Toxicity in human HepG2 cells xenografted BALB/c nude mouse assessed as change in tumor weight at 10 mg/kg, iv qod for 14 to 29 days (reference value: 4.52 g); type: organism-based; settings: in vivo, time 14-29 day
[11] = Acute toxicity in Kunming mouse assessed as survival at 50 mg/kg, iv measured for 7 days relative to control; type: organism-based; settings: in vivo, time 7 day
[12] = tested on: HepG2; assay: Antitumor activity against human HepG2 cells xenografted in BALB/c nude mouse assessed as tumor growth inhibition at 10 mg/kg, iv qod for 14 to 29 days relative to control; type: functional; settings: time 14-29 day, read-out: TGI
[13] = tested on: HepG2; assay: Antitumor activity against human HepG2 cells xenografted in BALB/c nude mouse assessed as tumor volume at 10 mg/kg, iv qod for 14 to 29 days measured on day 29 (reference value: 2,838.93 +/- 737.40); type: functional; settings: time 14-29 day
[14] = Acute toxicity in Kunming mouse assessed as survival at 100 mg/kg, iv measured for 7 days relative to control; type: organism-based; settings: in vivo, time 7 day
[15] = Acute toxicity in Kunming mouse assessed as survival at 25 mg/kg, iv measured for 7 days relative to control; type: organism-based; settings: in vivo, time 7 day
[16] = Acute toxicity in iv dosed Kunming mouse measured for 7 days; type: organism-based; settings: in vivo, time 7 day
[17] = Acute toxicity in Kunming mouse assessed as survival at 200 mg/kg, iv measured for 7 days relative to control; type: organism-based; settings: in vivo, time 7 day
[18] = tested on: HepG2; assay: Antitumor activity against human HepG2 cells xenografted in BALB/c nude mouse assessed as tumor volume at 10 mg/kg, iv qod for 14 to 29 days measured on day 1 (reference value: 154.04 +/- 3120); type: functional; settings: time 14-29 day
[19] = Acute toxicity in Kunming mouse assessed as survival at 75 mg/kg, iv measured for 7 days relative to control; type: organism-based; settings: in vivo, time 7 day

Row | solubility [1] [mg/mL] | IC50 ([4]; Homo sapiens, MCF7, 48 h) [µM] | IC50 ([5]; Homo sapiens, HepG2, 48 h) [µM] | IC50 ([6]; Homo sapiens, Bel-7402, 48 h) [µM] | SMILES | further results
1 | < 0.001 | 0.68 | 0.095 |  | COc1ccc(NS(=O)(=O)c2ccc3c(c2)c2ccccc2n3C)c(OC)n1 | 
2 | 0.44 |  |  |  | COc1ccc(N(CCN2CCOCC2)S(=O)(=O)c2ccc3c(c2)c2ccccc2n3C)c(OC)n1.Cl | 
3 | 0.58 |  |  |  | COc1ccc(N(CCN2CCCCC2)S(=O)(=O)c2ccc3c(c2)c2ccccc2n3C)c(OC)n1.Cl | 
4 | > 30 |  |  |  | COc1ccc(N(CCNC(=O)CN)S(=O)(=O)c2ccc3c(c2)c2ccccc2n3C)c(OC)n1.Cl.Cl | 
5 |  |  | 5.11 | > 25 | COc1ccc(N(CCOC(N)=O)S(=O)(=O)c2ccc3c(c2)c2ccccc2n3C)c(OC)n1 | 
6 |  | 6.63 | 4.75 | 4.38 | COc1ccc(N(CCN)S(=O)(=O)c2ccc3c(c2)c2ccccc2n3C)c(OC)n1 | 
7 | 18.4 |  |  |  | COc1ccc(N(CCCn2ccnc2)S(=O)(=O)c2ccc3c(c2)c2ccccc2n3C)c(OC)n1.Cl | 
8 | > 30 |  |  |  | COc1ccc(N(CCOC(=O)CN2CCN(C)CC2)S(=O)(=O)c2ccc3c(c2)c2ccccc2n3C)c(OC)n1.Cl | 

Continued, compound first:

Row | SMILES | solubility [1] [mg/mL] | IC50 ([4]; Homo sapiens, MCF7, 48 h) [µM] | IC50 ([5]; Homo sapiens, HepG2, 48 h) [µM] | IC50 ([6]; Homo sapiens, Bel-7402, 48 h) [µM] | further results
9 | COc1ccc(N(CCN2CCSCC2)S(=O)(=O)c2ccc3c(c2)c2ccccc2n3C)c(OC)n1.Cl | 0.27 |  |  |  | 
10 | COc1ccc(N(CCN2CCN(C)CC2)S(=O)(=O)c2ccc3c(c2)c2ccccc2n3C)c(OC)n1.Cl | 25.7 |  |  |  | 
11 | COc1ccc(N(CCOP(=O)(O)O)S(=O)(=O)c2ccc3c(c2)c2ccccc2n3C)c(OC)n1 [listing 1 of 2 here] |  |  |  |  | Activity [2]: Dose-dependent effect
12 | COc1ccc(N(CCN2CCN(C)CC2)S(=O)(=O)c2ccc3c(c2)c2ccccc2n3C)c(OC)n1 |  |  |  |  | TGI [3]: Dose-dependent effect
13 | COc1ccc(N(CCN2CCCCC2)S(=O)(=O)c2ccc3c(c2)c2ccccc2n3C)c(OC)n1 |  | 5.82 | 2.05 | 4.99 | 
14 | COc1ccc(N(CCOP(=O)(O)O)S(=O)(=O)c2ccc3c(c2)c2ccccc2n3C)c(OC)n1.Cl | 1.75 |  |  |  | 
15 | COc1ccc(/C=C\c2cc(OC)c(OC)c(OC)c2)cc1OP(=O)(O)O [FOSBRETABULIN DISODIUM] |  | 0.011 | 0.002 | 0.04 | inhibition in vivo at 50 mg/kg [7]: 45.8%
16 | COc1ccc(N(CCOP(=O)(O)O)S(=O)(=O)c2ccc3c(c2)c2ccccc2n3C)c(OC)n1 [listing 2 of 2 here] |  |  |  |  | IC50 ([4]; mcf7): 1.01 µM; IC50 ([5]; hepg2): 0.74 µM; IC50 ([6]; bel-7402): 1.15 µM
17 | COc1ccc(N(C(=O)CCN2CCCCC2)S(=O)(=O)c2ccc3c(c2)c2ccccc2n3C)c(OC)n1 |  | 1.16 | 0.35 | 0.73 | Activity [8]: 40.1%; Activity [9]: Non-Toxic
18 | COc1ccc(N(CCCN2CCN(C)CC2)S(=O)(=O)c2ccc3c(c2)c2ccccc2n3C)c(OC)n1.Cl | 20.6 |  |  |  | 
19 | COc1ccc(N(CCN2CCC(N3CCCC3)CC2)S(=O)(=O)c2ccc3c(c2)c2ccccc2n3C)c(OC)n1 |  | 21 | 3.37 | 7.81 | Activity [10]: 1.72 g; survival at 168 h [11]: 83.3%; inhibition in vivo at 10 mg/kg [12]: 51.5%; Activity [13]: 1237.34 mm3; survival at 168 h [14]: 16.7%; survival at 168 h [15]: 100%; LD50 at 168 h [16]: 70.7 mg/kg; survival at 168 h [17]: 0%; Activity [18]: 85.64 mm3
20 | COc1ccc(N(CCCN2CCC3(CCN(C)CC3)C2)S(=O)(=O)c2ccc3c(c2)c2ccccc2n3C)c(OC)n1.Cl | > 30 |  |  |  | 
21 | COc1ccc(N(CC(N)=O)S(=O)(=O)c2ccc3c(c2)c2ccccc2n3C)c(OC)n1.Cl | 0.02 |  |  |  | 
22 | COc1ccc(N(CCNC(=O)CN)S(=O)(=O)c2ccc3c(c2)c2ccccc2n3C)c(OC)n1 |  | 1.6 | 1.26 | 2.17 | 
23 | COc1ccc(N(CCN(C)C)S(=O)(=O)c2ccc3c(c2)c2ccccc2n3C)c(OC)n1 |  | 5.33 | 1.46 | 5.32 | Activity [10]: 0.87 g; survival at 168 h [11]: 83.3%; inhibition in vivo at 10 mg/kg [12]: 52.8%; Activity [13]: 1322.82 mm3; survival at 168 h [14]: 0%; survival at 168 h [15]: 100%; LD50 at 168 h [16]: 71.9 mg/kg; Activity [18]: 90.79 mm3; survival at 168 h [19]: 66.7%
24 | COc1ccc(N(CCN2CCCC2)S(=O)(=O)c2ccc3c(c2)c2ccccc2n3C)c(OC)n1 |  | 5.7 | 3.19 | 4.98 | 
25 | COc1ccc(N(CCN2CCOCC2)S(=O)(=O)c2ccc3c(c2)c2ccccc2n3C)c(OC)n1 |  | 4.65 | 1.06 | 2.69 | 
26 | COc1ccc(N(CCCN2CCC(N3CCCC3)CC2)S(=O)(=O)c2ccc3c(c2)c2ccccc2n3C)c(OC)n1 |  | 15.8 | 3.89 | 6.24 | 
27 | COc1ccc(N(CCCN(C)C)S(=O)(=O)c2ccc3c(c2)c2ccccc2n3C)c(OC)n1.Cl | 20.5 |  |  |  | 
